The values that follow come from paper PMC6264682, “Synthesis and Adrenolytic Activity of New Propanolamines” (Molecules, 2010).

Experiment [1] concerns anesthetized male Wistar rats. Briefly: Effect on normal electrocardiogram (ECG) in vivo in rats. The arrangement: species or system rat. As to conditions: 1 mg∙kg^-1 iv, mean ± SEM. The procedure: The effects on ECG intervals and heart rate were determined for all tested compounds at the same dose of 1 mg∙kg^-1.
Electrocardiographic measurement was carried out using the Ascard B5 Eco apparatus, standard lead II, and paper speed of 50 mm∙s^-1. The tested compounds were administered intravenously in a dose of 1 mg∙kg^-1. The ECG recording was carried out immediately before and 1, 5 and 15 min after administration of the tested compounds. The effect of the compounds on rat ECG recording was calculated according to Cambridge et al..

For the next experiment, the target named is α2-adrenoceptors. Briefly: Radioligand binding assay, displacement of [3H]Clonidine, rat cerebral cortex. To be noted: [3H]Clonidine 2 nM, ± SEM. The procedure: (§1) The experiment was carried out on rat cerebral cortex. […] The brains were homogenised in 20 vol of an ice-cold 50 mM Tris–HCl buffer (pH 7.6), and were centrifuged at 20.000 × g for 20 min (0–4 °C). The cell pellet was resuspended in the Tris–HCl buffer and centrifuged again. Radioligand binding assays were performed in plates (MultiScreen/Millipore). The final incubation mixture (final volume 300 μL) consisted of 240 μL of the membrane suspension, 30 μL of [^3H]Prazosin (0.2 nM), [^3H]Clonidine (2 nM) or [^3H]CGP12177 (0.2 nM) solution, and 30 μL of the buffer containing seven to eight concentrations (10^–11–10^–4 M) of the tested compounds. […] The incubation was terminated by rapid filtration over glass fibre filters (Whatman GF/C) using a vacuum manifold (Millipore). The filters were then washed twice with the assay buffer and placed in scintillation vials with a liquid scintillation cocktail. Radioactivity was measured in a WALLAC 1409 DSA liquid scintillation counter. All the assays were made in duplicate. The radioligand binding data were analyzed using an iterative curve-fitting routine (GraphPAD/Prism, Version 3.0, San Diego, CA, USA). Ki values were calculated from the Cheng and Prusoff equation [25].

In a further experiment the target is α1-adrenoceptors. Briefly: Radioligand binding assay, displacement of [3H]Prazosin, rat cerebral cortex. As to conditions: for Ki: rat cerebral cortex, [3H]Prazosin 0.2 nM, ± SEM. The procedure: as §1
The test system of experiment [2] is adrenaline-induced arrhythmia. The experiment in a line: Prophylactic antiarrhythmic activity, adrenaline-induced arrhythmia in anesthetized rats. The format is in vivo, rat. As to conditions: limits in brackets; for ED50 iv (dose producing 50% inhibition of premature ventricular beats): iv 15 min before adrenaline 20 μg∙kg^-1 iv; for ED50 po (dose producing 50% inhibition of premature ventricular beats): orally (intragastric) 60 min before adrenaline 20 μg∙kg^-1 iv. The procedure: The prophylactic antiarrhythmic activity of compounds 10 and 11 was determined using an adrenaline-induced arrhythmia model of in anesthetized rats.
Arrhythmia was evoked in thiopental (60 mg kg^-1, ip) – anaesthetized rats by iv injection of adrenaline (20 μg kg^-1). The tested compounds were administered intravenously 15 min or orally 60 min before adrenaline. […] The cardiac rhythm disturbances were recorded for 15 min after adrenaline injection. ECGs were analyzed according to the guidelines of the Lambeth Convention on ventricular premature beats (VBs), bigeminy, salvos (less than four successive VBs), ventricular tachycardia (VT, four or more successive VBs), and ventricular fibrillation (VF).

Experiment [3] deals with isolated rabbit small intestine. The experiment in a line: Influence on spontaneous contractions of isolated rabbit ileum. To be noted: for Amplitude of contractions / Frequency of contractions: mean ± SEM. The procedure:
The influence on isolated rabbit ileum of the investigated compounds on the smooth muscle was investigated on the rabbit small intestine, according to the Magnus’ method modified and described by Orisadipe et al. The white rabbits were sacrificed by cervical dislocation and the small intestine was immediately removed, and cut into strips about 3–4 cm long. The isolated strips were incubated in Krebs solution at 37 °C and aerated with carbogen in special laboratory dishes. The isolated strip of the intestine was placed in a test glass tube with the Krebs solution constantly aerated by carbogen. After 1 hour incubation period, during which the physiological saline solution was changed every 15 min, the influence of the investigated compounds on spontaneous contractions of the rabbit ileum was evaluated. The contraction of the intestine was recorded on a TZ-4100 line recorder via isometric Harvard transducer, at the muscle load of 1 g. The influence of every single dose was recorded for 5 min.

Experiment [4] has as its system normotensive anesthetized rats. The experiment in a line: Influence on blood pressure in normotensive anesthetized rats. The format is in vivo, rat. The procedure: Hypotensive activity of compounds 10 and 11 was determined after iv and po administration to normotensive anesthetized rats.
Male Wistar normotensive rats were anesthetized with thiopental (50–75 mg kg^-1, ip). The right carotid artery was cannulated with a polyethylene tube, filled with heparin in saline to facilitate pressure measurement using the Datamax apparatus (Columbus Instruments). […]

[5] abbreviates: time 0 min (immediately before administration, baseline).
[6] abbreviates: concentration 0 (control before 10^-5 M).
Where [7] appears, read: concentration 0 (control before 10^-6 M).
Setting [8] is: concentration 0 (control before 10^-7 M).
[9] abbreviates: concentration 0 (control before 10^-8 M).
Setting [10] is: concentration 0 (control before 10^-9 M).
The mark [11] stands for this setting: po, 2 mg∙kg^-1, from 40 to 90 min.

Several values for one entry are separate records, joined by “and”; a condition that tells them apart may be missing. Identical values can stand only once. Marks after values point to notes of the source that are not given here. Some results are limits rather than exact numbers.

With `COc1ccccc1OCCNCC(O)COc1cccc2[nH]c3ccccc3c12` (stereo not shown) [Carvedilol, reference compound], the heart rate in experiment [1] (setting [5]) was 356.7 ± 21.0 Beats/min.
For the molecule `COc1ccccc1OCCNCC(O)COc1cccc2[nH]ccc12` (racemic) [(R,S)-9, (2R,S)-1-(1H-indol-4-yloxy)-3-(2-(2-methoxyphenoxy)ethylamino)propan-2-ol, reference compound], the “P–Q” value in experiment [1] (1 min after administration) was determined as […]; in experiment [1] (15 min after administration), […]; in experiment [1] (setting [5]) it was […]. Also, the QRS in experiment [1] (1 min after administration) is […]; in experiment [1] (5 min after administration), […]; in experiment [1] (15 min after administration) it was […]; in experiment [1] (setting [5]), […]. In addition, the “Q–T” value in experiment [1] (1 min after administration) was […]; in experiment [1] (5 min after administration), […]; in experiment [1] (15 min after administration), […]; in experiment [1] (setting [5]) it was […]. In addition, the heart rate is recorded as […] in experiment [1] (1 min after administration), […] in experiment [1] (5 min after administration), […] in experiment [1] (15 min after administration) and […] in experiment [1] (setting [5]). The figures for the Ki on α2-adrenoceptors and on α1-adrenoceptors were 1400 ± 400 nM and […], respectively. The “ED50 iv (dose producing 50% inhibition of premature ventricular beats)” value in experiment [2] is on record as […]. Besides, in experiment [2], the “ED50 po (dose producing 50% inhibition of premature ventricular beats)” value was […].
For `COCc1cc2[nH]ccc2c(OC)c1OCC(O)CNCCOc1ccccc1OC` [Compound 10, (2R,S)-1-(4-Methoxy-6-(methoxymethyl)-1H-indol-5-yloxy)-3-(2-(2-methoxyphenoxy)ethylamino)propan-2-ol], in experiment [3] (10^-5 M), the “increased frequency of contractions” value was “about 8%”. Further, the Amplitude of contractions in experiment [3] (10^-5 M) is 1.11 ± 0.09^c g; in experiment [3] (10^-6 M), 1.10 ± 0.07^c g; in experiment [3] (10^-7 M) it was 1.29 ± 0.05^a g; in experiment [3] (10^-8 M), 1.31 ± 0.06^b g; in experiment [3] (10^-9 M), 1.56 ± 0.06 g; in experiment [3] (setting [6]), 1.72 ± 0.11 g. In addition, the Amplitude of contractions in experiment [3] (setting [7]) stood at 1.63 ± 0.10 g; in experiment [3] (setting [8]), 1.55 ± 0.10 g; in experiment [3] (setting [9]), 1.53 ± 0.06 g; in experiment [3] (setting [10]) it was 1.43 ± 0.06 g. Further, the Frequency of contractions in experiment [3] (10^-5 M) is on record as 10.70 ± 0.25^a min ^-1; in experiment [3] (10^-6 M) it was 11.60 ± 0.22 min ^-1; in experiment [3] (10^-7 M), 12.15 ± 0.15 min ^-1; in experiment [3] (10^-8 M), 12.15 ± 0.18 min ^-1; in experiment [3] (10^-9 M) it was 12.14 ± 0.22 min ^-1; in experiment [3] (setting [6]) it was 11.61 ± 0.27 min ^-1. Besides, the Frequency of contractions is on record as 12.24 ± 0.25 min ^-1 in experiment [3] (setting [7]), 12.05 ± 0.19 min ^-1 in experiment [3] (setting [8]), 11.77 ± 0.14 min ^-1 in experiment [3] (setting [9]) and 12.74 ± 0.20 min ^-1 in experiment [3] (setting [10]). For the same molecule, in experiment [3] (range of concentrations 10^-8–10^-5 M), the “diminished amplitude of contractions” value was in the range of 14 to 35%. Also, the “time after administration in which diastolic blood pressure was decreased” value in experiment [4] (iv, 0.25 mg·kg^-1) was determined as 10 min. Further, the “time after administration in which systolic blood pressure was decreased” value in experiment [4] (iv, 0.25 mg·kg^-1) was 20 min. Further, the “time over which diastolic blood pressure was significantly decreased” value in experiment [4] (iv, 0.5 mg∙kg^-1) is recorded as not above 10 min. Also, the “decrease of systolic blood pressure” value in experiment [4] (iv, 0.5 mg∙kg^-1, throughout the whole observation period) is reported as 8–14%; in experiment [4] (setting [11]) it was 9–18%. Moreover, in experiment [4] (po, 1 mg∙kg^-1), the hypotensive activity entry was “disappeared”. Further, the “decrease of diastolic blood pressure” value in experiment [4] (setting [11]) is on record as 11–23%. The “P–Q” value is on record as 45.6 ± 1.6^b ms in experiment [1] (1 min after administration), 46.8 ± 1.6^c ms in experiment [1] (5 min after administration), 46.4 ± 1.6^c ms in experiment [1] (15 min after administration) and 40.4 ± 0.4 ms in experiment [1] (setting [5]). The QRS is 31.2 ± 0.5^c ms in experiment [1] (1 min after administration), 31.2 ± 1.0^c ms in experiment [1] (5 min after administration), 32.4 ± 0.8^d ms in experiment [1] (15 min after administration) and 27.6 ± 0.8 ms in experiment [1] (setting [5]). The “Q–T” value in experiment [1] (1 min after administration) is 92.0 ± 4.2 ms; in experiment [1] (5 min after administration), 100.0 ± 2.8 ms; in experiment [1] (15 min after administration), 104.0 ± 1.4^a ms; in experiment [1] (setting [5]) it was 94.4 ± 2.8 ms. In addition, the heart rate is listed as 334.0 ± 13.0 Beats/min in experiment [1] (1 min after administration), 309.6 ± 13.7 Beats/min in experiment [1] (5 min after administration), 297.4 ± 12.4 Beats/min in experiment [1] (15 min after administration) and 329.4 ± 12.2 Beats/min in experiment [1] (setting [5]). Besides, the Ki stood at 307 ± 11.7 nM at α2-adrenoceptors and 5.9 ± 0.3 nM on α1-adrenoceptors. Further, the “selectivity towards α1-adrenergic receptors” value in the experiment with α1-adrenoceptors (from Ki values of Table 1) stood at 52 fold. The “ED50 iv (dose producing 50% inhibition of premature ventricular beats)” value in experiment [2] is on record as 0.35 (0.18–0.72) mg∙kg^-1. For the same molecule, the “ED50 po (dose producing 50% inhibition of premature ventricular beats)” value in experiment [2] is 1.71 mg∙kg^-1 and 1.71 (1.52 ± 1.93) mg∙kg^-1.
